Like-named read-outs stand apart in the source and are kept apart here.
Tests used:
IFNγ = test: Cytokine assay: IFNγ release from PHA-L stimulated human PBMCs; assay type: cell-based
Procedure: (§1) Cytokine inhibitory activity is determined by measuring the effect of test agent on the release of the cytokines IL-4, IL-13 and IFNγ from human peripheral blood mononuclear cells (PBMCs) stimulated with the T-cell mitogen phytohemagglutinin-L (PHA-L). At the time of assay, human PBMCs (Astarte Biologics) are removed from cryopreservation, thawed quickly at 37° C., diluted in assay medium (RPMI-Gibco 1640 medium, 10% heat inactivated fetal bovine serum (HIFBS), 2 mM glutamine and 10 mM HEPES pH 7.4) and then centrifuged at 250×g for 5 minutes. The resulting cell pellet is re-suspended in assay medium to a concentration of approximately 5×10^6 cells/mL and 50 μL of this cell suspension (approximately 250,000 cells) is added to each well of a 384-well cell culture microtiter plate (Perkin Elmer). Varying concentrations of test compound are then diluted in assay medium and added to the assay plate wells in a volume of 25 μL. After −10 minutes at room temperature (21° C.) the cells are stimulated by the addition of 25 μL of PHA-L (14 μg/mL; Millipore) and the assay plate is placed in an incubator at 37° C. in a humidified environment in 5% carbon dioxide. The final assay conditions are approximately 250,000 human PBMCs per well in assay medium containing 3.5 μg/mL PHA-L and the indicated final concentration of test compound (approximately 10 μM to […] by 4-fold dilution). The final concentration of DMSO in the assay is approximately 0.25%. After 48 hours, the assay plate is removed from the incubator and centrifuged at 250×g for 5 minutes. A portion of the resulting cell supernatant is then used to determine the amount of IL-4, IL-13 and IFNγ in each well. Cytokine measurements are made using human IL-4, IL-13 or IFNγ HTRF assay kits (CisBio) following the manufacturer's assay protocol. The concentrations and resulting effect values for tested compounds are plotted and the concentration of compound required for 50% effect (IC50) is determined with a four-parameter logistic dose response equation (E-WorkBook, ID Business Solutions Ltd.) and shown in Table 17.

[1] = target: PDE4B (aa 152-484, Uniprot ID Q07343) (Homo sapiens (Human), UniProt Q07343); test: PDE4 SPA assay (scintillation proximity assay); assay type: biochemical; settings: read-out: PDE4B2 IC50
Chain of PDE4B (aa 152-484, Uniprot ID Q07343) (Q07343 324-656): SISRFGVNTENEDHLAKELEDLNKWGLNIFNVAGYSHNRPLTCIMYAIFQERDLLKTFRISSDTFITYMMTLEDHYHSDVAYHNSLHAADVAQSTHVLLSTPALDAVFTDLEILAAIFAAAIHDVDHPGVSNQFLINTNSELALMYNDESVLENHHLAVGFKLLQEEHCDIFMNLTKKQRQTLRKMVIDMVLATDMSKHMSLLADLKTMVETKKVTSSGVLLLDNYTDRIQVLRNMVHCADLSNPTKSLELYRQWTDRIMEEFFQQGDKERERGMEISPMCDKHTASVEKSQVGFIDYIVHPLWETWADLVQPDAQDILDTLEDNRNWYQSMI
Procedure: Phosphodiesterase (PDE) activity is determined by measuring the effect of a test agent on the activity of the PDE4B enzyme in a scintillation proximity assay (SPA). At the time of assay, approximately 30 μL of PDE4B (aa 152-484, Uniprot ID Q07343) in 50 mM Tris pH 7.5, 1.3 mM MgC2, 0.004% Brij 35 is added to a 384 well white clear bottom polystyrene plate (Corning) containing 1 μL of varying concentrations of test compound. After −10 minutes at room temperature (RT; 21° C.), the assay is initiated by the addition of 20 μL of a mixture of ^3H-labeled (adenosine 3′, 5′-cyclic phosphate, ammonium salt, [2,8-^3H]; Perkin Elmer) and unlabeled cAMP. The final assay conditions are approximately 81.6 pM PDE4B in 50 mM Tris pH 7.5, 1.3 mM MgCl2, 0.004% Brij 35, 1 μM ^3H-labeled/unlabeled cAMP (1425 dpm/pmol) and the indicated final concentration of test compound (approximately 10 μM to […] by 4-fold dilution). The final concentration of DMSO in the assay is approximately 2.0%. After 30 minutes at RT, the assay is terminated by the addition of approximately 20 μL of an aqueous solution of PDE YSI SPA beads (8 mg/mL in water; Perkin Elmer). The beads are allowed to settle for at least 2 hours and the plate is then counted on a MicroBeta2 (Perkin Elmer). The concentrations and resulting effect values for the tested compound are plotted and the concentration of compound required for 50% effect (IC50) is determined with a four-parameter logistic dose response equation (E-WorkBook, ID Business Solutions Ltd.) and shown in Table 17.

IL-4 = test: Cytokine assay: IL-4 release from PHA-L stimulated human PBMCs; assay type: cell-based; settings: read-out: IL4 IC50
Procedure: as §1

IL-13 = test: Cytokine assay: IL-13 release from PHA-L stimulated human PBMCs; assay type: cell-based; settings: read-out: IL13 IC50
Procedure: as §1

Compound: COc1ccc(-c2cncc(C3COB(O)C3)c2)cc1OC (single isomer, unassigned) [Example 1, 4-(5-(3,4-dimethoxyphenyl)pyridin-3-yl)-1,2-oxaborolan-2-ol]
- IC50 (IFNγ): 2.98 nM
- IC50 [1]: 3.16 nM
- IC50 (IL-4): 14.3 nM
- IC50 (IL-13): 284 nM

Compound: COc1ccc(-c2cncc(C3COB(O)C3)c2)cc1OC(C)C (single isomer, unassigned) [Example 6, 4-(5-(3-isopropoxy-4-methoxyphenyl)pyridin-3-yl)-1,2-oxaborolan-2-ol]
- IC50 (IFNγ): 0.72 nM
- IC50 [1]: 1.05 nM
- IC50 (IL-4): 17.6 nM
- IC50 (IL-13): 283 nM

Compound: COc1ccc(-c2cncc(C3COB(O)C3)c2)cc1OC1CC1 (single isomer, unassigned) [Example 7, 4-(5-(3-cyclopropoxy-4-methoxyphenyl)pyridin-3-yl)-1,2-oxaborolan-2-ol]
- IC50 (IFNγ): 0.71 nM
- IC50 [1]: 0.97 nM
- IC50 (IL-4): 7.76 nM
- IC50 (IL-13): 289 nM

Compound: COc1ccc(-c2cncc(C3COB(O)C3)c2)cc1OCCO (single isomer, unassigned) [Example 8, 4-(5-(3-(2-hydroxyethoxy)-4-methoxyphenyl)pyridin-3-yl)-1,2-oxaborolan-2-ol]
- IC50 (IFNγ): 1.2 nM
- IC50 [1]: 2.42 nM
- IC50 (IL-4): 0.76 nM
- IC50 (IL-13): 25 nM

Compound: COc1ccc(-c2cncc(C3COB(O)C3)c2)cc1OCCCO (single isomer, unassigned) [Example 9, 4-(5-(3-(3-hydroxypropoxy)-4-methoxyphenyl)pyridin-3-yl)-1,2-oxaborolan-2-ol]
- IC50 (IFNγ; Homo sapiens, PBMC): 1.87 nM
- IC50 [1]: 1.26 nM
- IC50 (IL-4; Homo sapiens, PBMC): 3.63 nM
- IC50 (IL-13; Homo sapiens, PBMC): 265 nM

Compound: CCOc1c(OC)ccc(-c2cncc(C3COB(O)C3)c2)c1C(F)F (single isomer, unassigned) [Example 11, 4-(5-(2-(difluoromethyl)-3-ethoxy-4-methoxyphenyl)pyridin-3-yl)-1,2-oxaborolan-2-ol]
- IC50 (IFNγ): 68.3 nM
- IC50 [1]: 33.5 nM
- IC50 (IL-4): 141 nM
- IC50 (IL-13): 10000 nM

Compound: CCOc1cc(-c2cncc(C3COB(O)C3)c2)cc(F)c1OC (single isomer, unassigned) [Example 12, 4-(5-(3-ethoxy-5-fluoro-4-methoxyphenyl)pyridin-3-yl)-1,2-oxaborolan-2-ol]
- IC50 (IFNγ): 0.99 nM
- IC50 [1]: 1.08 nM
- IC50 (IL-4): 2.32 nM
- IC50 (IL-13): 162 nM

Compound: CCOc1cc(-c2cncc(C3COB(O)C3)c2)cc(Cl)c1OC (single isomer, unassigned) [Example 13, 4-(5-(3-chloro-5-ethoxy-4-methoxyphenyl)pyridin-3-yl)-1,2-oxaborolan-2-ol]
- IC50 (IFNγ): 4.89 nM
- IC50 [1]: 0.97 nM
- IC50 (IL-4): 5.98 nM
- IC50 (IL-13): 166 nM

Compound: CCOc1cc(-c2cncc(C3COB(O)C3)c2)c(F)cc1OC (single isomer, unassigned) [Example 14, 4-(5-(5-ethoxy-2-fluoro-4-methoxyphenyl)pyridin-3-yl)-1,2-oxaborolan-2-ol]
- IC50 (IFNγ; Homo sapiens, PBMC): 1.85 nM
- IC50 [1]: 1.5 nM
- IC50 (IL-4; Homo sapiens, PBMC): 3.21 nM
- IC50 (IL-13; Homo sapiens, PBMC): 91 nM

Compound: CCOc1cc(-c2cncc(C3COB(O)C3)c2)c(Cl)cc1OC (single isomer, unassigned) [Example 15, 4-(5-(2-chloro-5-ethoxy-4-methoxyphenyl)pyridin-3-yl)-1,2-oxaborolan-2-ol]
- IC50 (IFNγ; Homo sapiens, PBMC): 0.71 nM
- IC50 [1]: 1.57 nM
- IC50 (IL-4; Homo sapiens, PBMC): 1.41 nM
- IC50 (IL-13; Homo sapiens, PBMC): 136 nM

Compound: CCCOc1nc(-c2cncc(C3COB(O)C3)c2)c(F)cc1OC (single isomer, unassigned) [Example 16, 4-(3-fluoro-5-methoxy-6-propoxy-[2,3′-bipyridin]-5′-yl)-1,2-oxaborolan-2-ol]
- IC50 (IFNγ): 0.82 nM
- IC50 [1]: 0.05 nM
- IC50 (IL-4): 0.54 nM
- IC50 (IL-13): 126 nM

Compound: CCCOc1cc(-c2cncc(C3COB(O)C3)c2)ccc1OC(F)F (single isomer, unassigned) [Example 17, 4-(5-(4-(difluoromethoxy)-3-propoxyphenyl)pyridin-3-yl)-1,2-oxaborolan-2-ol]
- IC50 (IFNγ; Homo sapiens, PBMC): 0.47 nM
- IC50 [1]: 0.28 nM
- IC50 (IL-4; Homo sapiens, PBMC): 0.65 nM
- IC50 (IL-13; Homo sapiens, PBMC): 138 nM

Compound: CCCOc1cc(-c2cncc(C3COB(O)C3)c2)cnc1OC (single isomer, unassigned) [Example 18, 4-(6′-methoxy-5′-propoxy-[3,3′-bipyridin]-5-yl)-1,2-oxaborolan-2-ol]
- IC50 (IFNγ; Homo sapiens, PBMC): 2.23 nM
- IC50 [1]: 0.74 nM
- IC50 (IL-4; Homo sapiens, PBMC): 1.91 nM
- IC50 (IL-13; Homo sapiens, PBMC): 218 nM

Compound: CCOc1cc(-c2cc([C@@H]3COB(O)C3)cnc2C)ccc1OC (single isomer, unassigned) [Example 19]
- IC50 (IFNγ; Homo sapiens, PBMC): 1.68 nM
- IC50 [1]: 2.96 nM
- IC50 (IL-4; Homo sapiens, PBMC): 2.56 nM
- IC50 (IL-13; Homo sapiens, PBMC): 1480 nM

Compound: CCOc1cc(-c2cc([C@H]3COB(O)C3)cnc2C)ccc1OC (single isomer, unassigned) [Example 20]
- IC50 (IFNγ; Homo sapiens, PBMC): 103 nM
- IC50 [1]: 26.9 nM
- IC50 (IL-4; Homo sapiens, PBMC): 86.8 nM
- IC50 (IL-13; Homo sapiens, PBMC): 8790 nM

Compound: CCOc1cc(-c2cncc(C3COB(O)C3)c2C)ccc1OC (single isomer, unassigned) [Example 21, 4-(5-(3-ethoxy-4-methoxyphenyl)-4-methylpyridin-3-yl)-1,2-oxaborolan-2-ol]
- IC50 (IFNγ): 1.35 nM
- IC50 [1]: 0.64 nM
- IC50 (IL-4): 0.84 nM
- IC50 (IL-13): 159 nM

Compound: CCCOc1cc(-c2nc(C)cc(C3COB(O)C3)n2)ccc1OC (single isomer, unassigned) [Example 22, 4-(2-(4-methoxy-3-propoxyphenyl)-6-methylpyrimidin-4-yl)-1,2-oxaborolan-2-ol]
- IC50 (IFNγ; Homo sapiens, PBMC): 1.43 nM
- IC50 [1]: 7.89 nM
- IC50 (IL-4; Homo sapiens, PBMC): 1.75 nM
- IC50 (IL-13; Homo sapiens, PBMC): 257 nM

Compound: CCCOc1cc(-c2nc(C3COB(O)C3)cc(C(F)(F)F)n2)ccc1OC (single isomer, unassigned) [Example 23, 4-(2-(4-methoxy-3-propoxyphenyl)-6-(trifluoromethyl)pyrimidin-4-yl)-1,2-oxaborolan-2-ol]
- IC50 (IFNγ; Homo sapiens, PBMC): 0.85 nM
- IC50 [1]: 0.97 nM
- IC50 (IL-4; Homo sapiens, PBMC): 0.61 nM
- IC50 (IL-13; Homo sapiens, PBMC): 132 nM

Compound: CCOc1cc(-c2cncc(C3COB(O)C3)n2)ccc1OC (single isomer, unassigned) [Example 24, 4-(6-(3-ethoxy-4-methoxyphenyl)pyrazin-2-yl)-1,2-oxaborolan-2-ol]
- IC50 (IFNγ; Homo sapiens, PBMC): 1.33 nM
- IC50 [1]: 0.99 nM
- IC50 (IL-4; Homo sapiens, PBMC): 2.24 nM
- IC50 (IL-13; Homo sapiens, PBMC): 163 nM

Compound: CCCOc1nc(-c2cncc(C3COB(O)C3)c2)ccc1OC (single isomer, unassigned) [Example 61, 4-(5-methoxy-6-propoxy-[2,3′-bipyridin]-5′-yl)-1,2-oxaborolan-2-ol]
- IC50 (IFNγ; Homo sapiens, PBMC): 2.12 nM
- IC50 [1]: 0.53 nM
- IC50 (IL-4): 0.73 nM
- IC50 (IL-13): 499 nM

Compound: CCCOc1nc(-c2cncc(C3COB(O)C3)c2)ccc1OC (single isomer, unassigned) [Example 62, 4-(5-methoxy-6-propoxy-[2,3′-bipyridin]-5′-yl)-1,2-oxaborolan-2-ol]
- IC50 (IFNγ): 1.44 nM
- IC50 [1]: 0.28 nM
- IC50 (IL-4): 2.66 nM
- IC50 (IL-13): 2570 nM

Compound: CCCOc1cc(-c2nc(OCCO)cc(C3COB(O)C3)n2)ccc1OC (stereo not drawn) [Example 195, 4-(6-(2-hydroxyethoxy)-2-(4-methoxy-3-propoxyphenyl)pyrimidin-4-yl)-1,2-oxaborolan-2-ol]
- IC50 (IFNγ; Homo sapiens, PBMC): 0.33 nM
- IC50 (IL-4; Homo sapiens, PBMC): 0.36 nM
- IC50 (IL-13; Homo sapiens, PBMC): 2190 nM

Compound: COc1ccc(-c2cccc(C3COB(O)C3)n2)cc1OC (stereo not drawn) [Example 197, 4-(6-(3,4-dimethoxyphenyl)pyridin-2-yl)-1,2-oxaborolan-2-ol]
- IC50 (IFNγ; Homo sapiens, PBMC): 12.2 nM
- IC50 (IL-4; Homo sapiens, PBMC): 107 nM
- IC50 (IL-13; Homo sapiens, PBMC): 1580 nM

Source: US11559538B2, “Substituted 1,2-oxaborolan-2-ols as PDE4 inhibitors” (Pfizer Inc., priority 2018, dated 2023)
